Measured values published in patent US6806281B2 (Georgetown University, priority 1997, dated 2004).

How the values were obtained:
Locomotor activity = assay type: in vivo, Sprague-Dawley rats
Experimental: The locomotor effects of compound 2 were evaluated using male Swiss Webster mice according to previously published procedures: Izenwasser, S., Terry, P., Heller, B., Witkin, J. M., and Katz, J. L. (1994) Differential relationships among dopamine transporter affinities and stimulant potencies of various uptake inhibitors. Eur. J. Pharmacol., 263, 277-283.
Thus the small behavioral responses to the piperidine analog appear to last longer than that of cocaine.

[1] = Drug discrimination, amphetamine substitution tests; assay type: in vivo, rats; conditions: for response rates: across all test doses
[2] = Drug discrimination, cocaine substitution and co-administration tests; assay type: in vivo, rats
[3] = Intravenous drug self-administration; assay type: in vivo, rats; conditions: for self-administration responding: i.v., FR10, cocaine 1 mg/kg/infusion, analog 2 0.3-3 mg/kg/infusion, analog 3 0.125-0.5 mg/kg infusion, vs saline extinction
Description: J. Neurosci., 16, 7416-7427.
Rats were initially trained to lever press for food pellets in standard operant boxes. Following lever press training, rats were implanted with polyvinyl chloride catheters into femoral veins under halothane anesthesia (2-3% in medical grade oxygen) and were allowed to recover for an additional 7 days before initiation of i.v. drug self-administration testing. During drug self-administration sessions, food pellets were no longer delivered, and instead intravenous injections of drugs were delivered by way of the catheter.
Following this second extinction test, self-administration of piperidine analog 2 was studied at doses of 1, 3, and 0.3 mg/kg/infusion in that order. Each dose was tested for five days. During all the re-acquisition test days, a priming infusion was given at the start of the session on each day.

dopamine transporter [4] = biological target: T1, dopamine transporter (Rattus norvegicus, UniProt P23977); assay: biochemical; conditions: IC50 (nM) [3H]WIN 35,428 binding, rat striatal membranes
dopamine transporter [5] = biological target: T1, dopamine transporter; assay: biochemical; conditions: IC50 (nM) [3H]dopamine uptake, rat striatal synaptosomes
dopamine transporter [6] = biological target: T1, dopamine transporter; conditions: relative to cocaine
dopamine transporter [7] = biological target: T1, dopamine transporter; conditions: relative to cocaine; remark: listed apart in the source
[8] = system: striatal dopamine transporter; assay: PET evaluation of 11C-labeled isomers; conditions: for specific binding to striatal dopamine transporter sites: in vivo PET
Experimental: The products were purified by HPLC on a C-18 cartridge eluted with MeOH:phosphate/triethylamine buffer, pH 7.2 (60:40).
After passage through a 0.22 μm filter, the sterile products were administered to three Rhesus monkeys and dynamic PET images were acquired over 90 minutes.

T1 sequence (P23977 whole entry): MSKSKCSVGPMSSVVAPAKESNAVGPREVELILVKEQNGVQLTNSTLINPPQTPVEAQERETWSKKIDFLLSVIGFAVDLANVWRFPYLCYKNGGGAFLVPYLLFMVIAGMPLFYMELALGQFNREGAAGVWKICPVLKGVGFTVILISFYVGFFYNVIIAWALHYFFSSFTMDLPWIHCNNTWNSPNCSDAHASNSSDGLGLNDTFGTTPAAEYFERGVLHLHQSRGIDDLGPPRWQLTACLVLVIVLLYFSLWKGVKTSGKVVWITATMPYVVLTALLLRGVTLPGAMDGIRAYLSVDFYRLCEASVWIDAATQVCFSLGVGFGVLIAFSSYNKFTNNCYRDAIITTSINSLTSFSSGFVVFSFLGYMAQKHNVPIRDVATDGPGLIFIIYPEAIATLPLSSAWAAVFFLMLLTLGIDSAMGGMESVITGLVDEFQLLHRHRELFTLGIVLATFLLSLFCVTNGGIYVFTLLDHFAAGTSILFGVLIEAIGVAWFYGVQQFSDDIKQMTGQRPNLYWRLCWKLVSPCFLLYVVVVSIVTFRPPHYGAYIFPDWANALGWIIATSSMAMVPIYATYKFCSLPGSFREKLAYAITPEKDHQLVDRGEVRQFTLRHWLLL

## COC(=O)C1CN(C)CCC1c1ccc(Cl)cc1 (racemic) [(±)-2, (±)-cis-Methyl 4-(4-Chlorophenyl)-1-methylpiperidine-3-carboxylate]
Locomotor activity; 90 minutes following the drug injection
  time-course of stereotypic response: persistent at 90 minutes
Locomotor activity; doses higher than 20 mg/kg i.p.
  convulsions: produce convulsions
Locomotor activity; i.p., cocaine 10 mg/kg, analog 2 3-20 mg/kg, compared to saline control
  distance traveled: did not alter the distance traveled
Locomotor activity; i.p., cocaine 10 mg/kg, analog 2 10 and 20 mg/kg, compared to saline control
  stereotypic behavior / stereotypic time: small, statistically nonsignificant increase in stereotypic time
[1]
  response rates: remained fairly stable
[2]; analog 2 10 mg/kg plus cocaine 1.25 and 5 mg/kg
  effect of co-administration on drug choice and response rate of cocaine: did not significantly alter drug choice
[2]; analog 2 5 and 10 mg/kg
  response rates compared with cocaine (10 mg/kg): substantially lower
[2]; analog 2 5 and 20 mg/kg
  maximum cocaine-lever responding: 40%
[3]; analog 2, all doses tested (0.3-3 mg/kg/infusion), vs saline extinction test
  number of infusions delivered: not significantly different from that of the saline extinction test
[3]
  self-administration responding: failed to restore the self-administration responding

## COC(=O)[C@@H]1CN(C)CC[C@@H]1c1ccc(Cl)cc1 (racemic) [Compound (±)-1, (±)-cis-Methyl 4-(4-Chlorophenyl)-1-methylpiperidine-3-carboxylate]
other
  melting point: 98 to 99 °C

## COC(=O)C1CN(C)CCC1c1ccc(Cl)cc1 (single isomer, unassigned; (+)) [(+)-11, (+)-Methyl 4β-(4-chlorophenyl)-1-methylpiperidine-3α-carboxylate]
Dopamine transporter [4]
  IC50: 57.3 ± 8.1 nM
Dopamine transporter [5]
  IC50: 34.6 ± 3.2 nM

## CCCC1CN(C)CCC1c1ccc(Cl)cc1 (single isomer, unassigned; (+)) [(+)-15, (+) 4β-(4-chlorophenyl)-1-methyl-3α-n-propylpiperidine]
Dopamine transporter [4]
  IC50: 17.2 ± 0.5 nM
Dopamine transporter [5]
  IC50: 23.2 ± 2.2 nM

## COC(=O)C1CN(C)CCC1c1ccc(Cl)cc1 (single isomer, unassigned; (-)) [(−)-3, (−)-Methyl 4β-(4-chlorophenyl)-1-methylpiperidine-3β-carboxylate]
[3]
  self-administration responding: rats reliably self-administered this compound
Dopamine transporter [4]
  IC50: 24.8 ± 1.6 nM
Dopamine transporter [5]
  IC50: 85.2 ± 2.6 nM

## CN1CCC(c2ccc(Cl)cc2)C(CO)C1 (single isomer, unassigned; (-)) [(−)-5, (−)-4β-(4-Chlorophenyl)-3β-(hydroxymethyl)-1-methylpiperidine]
Dopamine transporter [5]
  IC50: 49 ± 3 nM

## CC(=O)OCC1CN(C)CCC1c1ccc(Cl)cc1 (single isomer, unassigned; (-)) [(−)-7, (−)-3β-(Acetoxymnethyl)-4β-(4-chlorophenyl)-1-methylpiperidine]
other
  melting point: 76 °C
Dopamine transporter [4]
  IC50: 44.7 ± 10.5 nM
Dopamine transporter [5]
  IC50: 62.9 ± 2.7 nM

## CCCC1CN(C)CCC1c1ccc(Cl)cc1 (single isomer, unassigned; (-)) [(−)-9, (−) 4β-(4-chlorophenyl)-1-methyl-3β-n-propylpiperidine]
Dopamine transporter [6]
  fold more potent than cocaine in binding affinity: 33 fold
Dopamine transporter [7]
  fold more potent than cocaine in inhibition of dopamine uptake: 29 fold
Dopamine transporter [4]
  IC50: 3 nM
Dopamine transporter [5]
  IC50: 8.3 ± 0.6 nM

## COC(=O)C1CN(C)CCC1c1ccc(Cl)cc1 (single isomer, unassigned; isomer 4) [cis isomer, 4-(4-chlorophenyl)-3-carbomethoxy-N-methylpiperidine]
[8]; 11C-labeled, PET images over 90 minutes
  accumulation in brain regions (dynamic PET): greater nonspecific accumulation in the cortex
[8]
  specific binding to striatal dopamine transporter sites: high levels of specific binding

## COC(=O)C1CN(C)CCC1c1ccc(Cl)cc1 (single isomer, unassigned; isomer 4) [trans isomer, 4-(4-chlorophenyl)-3-carbomethoxy-N-methylpiperidine]
[8]
  specific binding to striatal dopamine transporter sites: high levels of specific binding
[8]; unlabeled CFT administered 60 minutes after injection
  striatal activity after unlabeled CFT: selective decrease in the striatal activity

## CC(N)Cc1ccccc1 (centres unmarked) [amphetamine]
[1]
  response rates: remained fairly stable
[1]; substitution tests
  substitution for the discriminative stimulus effects of amphetamine: dose-dependent and complete substitution
